For test [1], the system named is P388. As to the kind of experiment: Inhibition ratio against the growth of P-388 cells at 10e-8 mol/L concentration determined by MTT method. It counts as functional, Mus musculus. A general note: Tetrazolium assays rely on reduction of a dye to a coloured formazan, in cell work by metabolically active cells.
Test [2] deals with A549. As to the kind of experiment: Inhibition ratio against the growth of A-549 cells at 10e-7 mol/L concentration determined by SRB method. It counts as functional, Homo sapiens.
Test [3] concerns A549. As to the kind of experiment: Inhibition ratio against the growth of A-549 cells at 10e-5 mol/L concentration determined by SRB method. Type of test: functional, Homo sapiens. (The SRB assay estimates cell density from bound dye.)
Test [4] relates to A549. As to the kind of experiment: Inhibition ratio against the growth of A-549 cells at 10e-4 mol/L concentration determined by SRB method. Type of test: functional, Homo sapiens.
In test [5] the test system is P388. As to the kind of experiment: Inhibition ratio against the growth of P-388 cells at 10e-7 mol/L concentration determined by MTT method. Type of test: functional, Mus musculus.
Test [6] has as its system P388. Description: Inhibition ratio against the growth of P-388 cells at 10e-4 mol/L concentration determined by MTT method. Type of test: functional, Mus musculus.
Test [7] relates to A549. Description: Inhibition ratio against the growth of A-549 cells at 10e-6 mol/L concentration determined by SRB method. It counts as functional, Homo sapiens.
Test [8] concerns A549. Description: Inhibition ratio against the growth of A-549 cells at 10e-8 mol/L concentration determined by SRB method. It counts as functional, Homo sapiens.
The test system of test [9] is P388. Description: Inhibition ratio against the growth of P-388 cells at 10e-6 mol/L concentration determined by MTT method. Type of test: functional, Mus musculus.
The test system of test [10] is P388. As to the kind of experiment: Inhibition ratio against the growth of P-388 cells at 10e-5 mol/L concentration determined by MTT method. It counts as functional, Mus musculus.

As for `CC(C)C(=O)N1N=C(c2ccccc2)NN=C1c1ccccc1`, the Inhibition ratio was 46.9 in the test on P388 [1]; 29.6 in the test on A549 [2]; 46.6 with A549 [3]; 83.8 in the test on A549 [4]; 24.9 in the test with P388 [5]; 82.5 with P388 [6]. The Inhibition ratio was found to be 38.7 with A549 [7], 29.5 in the test with A549 [8], 52 with P388 [9] and 61.1 in the test with P388 [10].

Take `O=C(CCl)N1N=C(c2ccc(C(F)(F)F)cc2)NN=C1c1ccc(C(F)(F)F)cc1`: the Inhibition ratio with P388 [1] turned out to be 0; with A549 [2], 0; in the test with A549 [3] it was 64.6; in the test with A549 [4], 95.5; in the test on P388 [5], 11.3; with P388 [6], 98.4. The Inhibition ratio in the test with A549 [7] stood at 0; in the test on A549 [8], 0; in the test on P388 [9] it was 2.2; in the test with P388 [10], 49.4.

For the compound `CCC(=O)N1N=C(c2ccc(C(F)(F)F)cc2)NN=C1c1ccc(C(F)(F)F)cc1`, the Inhibition ratio with P388 [1] was determined as 0; with A549 [2] it was 0; in the test on A549 [3] it was 48.1; with A549 [4], 84.7; with P388 [5] it was 6.3; with P388 [6], 68. Moreover, the Inhibition ratio in the test on A549 [7] is given as 21.7; in the test on A549 [8], 9; with P388 [9] it was 6.7; in the test with P388 [10] it was 21.1.

As for `CC(=O)N1N=C(c2ccccc2)NN=C1c1ccccc1`, the Inhibition ratio is reported as 9.2 in the test with P388 [1]; 0 with A549 [2]; 0 in the test with A549 [3]; 85.1 in the test with A549 [4]; 5.5 in the test with P388 [5]; 62.7 in the test with P388 [6]. For the same compound, the Inhibition ratio with A549 [7] amounted to 0; in the test with A549 [8], 0; in the test with P388 [9] it was 6.6; in the test with P388 [10], 10.9.

On to `O=C(CCl)N1N=C(c2ccccc2)NN=C1c1ccccc1`, for which the Inhibition ratio in the test with P388 [1] is 0; in the test on A549 [2] it was 4.1; with A549 [3], 95.8; in the test with A549 [4], 95.4; in the test on P388 [5], 3.6; with P388 [6], 99.1. For the same compound, the Inhibition ratio in the test with A549 [7] is recorded as 35.3; in the test with A549 [8] it was 13; in the test with P388 [9], 3.9; in the test with P388 [10] it was 100.

Turning to `CCC(=O)N1N=C(c2ccccc2)NN=C1c1ccccc1`, the Inhibition ratio was determined as 8.5 in the test on P388 [1]; 12.3 in the test with A549 [2]; 11.1 in the test with A549 [3]; 71.5 in the test with A549 [4]; 7.7 in the test with P388 [5]; 30.9 with P388 [6]. For the same compound, the Inhibition ratio in the test with A549 [7] is 6.2; in the test on A549 [8], 0; in the test with P388 [9], 7.6; in the test with P388 [10] it was 9.8.

Regarding `CC(C)C(=O)N1N=C(c2ccc(C(F)(F)F)cc2)NN=C1c1ccc(C(F)(F)F)cc1`, the Inhibition ratio in the test on P388 [1] amounted to 13.4; in the test on A549 [2], 0; with A549 [3], 21; in the test on A549 [4], 79.8; in the test on P388 [5] it was 16.2; with P388 [6], 42.2. In addition, the Inhibition ratio is given as 0 with A549 [7], 0 in the test on A549 [8], 15 in the test on P388 [9] and 26.9 in the test with P388 [10].

Turning to `CC(=O)N1N=C(c2ccc(C(F)(F)F)cc2)NN=C1c1ccc(C(F)(F)F)cc1`, the Inhibition ratio in the test with P388 [1] was 0; in the test on A549 [2] it was 0; with A549 [3], 63.6; in the test with A549 [4] it was 91.1; in the test on P388 [5], 5; in the test on P388 [6], 50.6. Moreover, the Inhibition ratio was 0 in the test with A549 [7], 0 in the test on A549 [8], 1.1 in the test with P388 [9] and 21.5 with P388 [10].

Source of the values: ChEMBL document CHEMBL1139637, “Synthesis, X-ray crystallographic analysis, and antitumor activity of 1-acyl-3,6-disubstituted phenyl-1,4-dihydro-1,2,4,5-tetrazines” (2005).
